In article PMC8131319, “The molecular basis of spectral tuning in blue- and red-shifted flavin-binding fluorescent proteins” (The Journal of Biological Chemistry, 2021):

Legend:
Test in all cases: X-ray crystallography
Format in all cases: binding
iLOV = molecular target: T1, iLOV (Arabidopsis thaliana, UniProt P93025, S394T/S409G/C426A/I452T/F470L/M475V/Q489K); details: 1.45 Å; space group P4_32_12; pH 4.6; noncovalent; acetate ion near FMN-N5
T1 construct: gene PHOT2; improved LOV2 domain (about residues 387-496 of phot2), expressed in E. coli from pET28a, His-tag (IMAC), monomer about 10 kDa

CagFbFP [1] = molecular target: T2, CagFbFP (Chloroflexus aggregans, UniProt B8GAY9, I52T/C85A); details: pH 5.5; noncovalent; structure virtually identical to parental CagFbFP
T2 construct: gene Cagg_3753; LOV domain from residue 47 (about 47-153), C-terminal His-tag, expressed in E. coli from pET11, homodimer

CagFbFP [2] = molecular target: T3, CagFbFP (Chloroflexus aggregans, UniProt B8GAY9, C85A/Q148K); details: 1.36 Å; pH 6.5; noncovalent; morpholine fragment near FMN; second structure 6YX6
T3 construct: gene Cagg_3753; LOV domain from residue 47 (about 47-153), C-terminal His-tag, expressed in E. coli from pET11, homodimer

CagFbFP [3] = molecular target: T4, CagFbFP (Chloroflexus aggregans, UniProt B8GAY9, I52T/C85A/Q148K); details: 1.8 Å; space group P2_12_12; pH 5.0; noncovalent
T4 construct: gene Cagg_3753; LOV domain from residue 47 (about 47-153), C-terminal His-tag, expressed in E. coli from pET11, homodimer
T4 sequence (B8GAY9 entry or part of it I52T/C85A/Q148K): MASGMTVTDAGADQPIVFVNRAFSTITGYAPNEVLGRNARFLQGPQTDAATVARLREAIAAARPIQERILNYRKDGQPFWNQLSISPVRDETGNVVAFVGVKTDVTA

T2 sequence (B8GAY9 entry or part of it I52T/C85A): as the sequence (B8GAY9 entry or part of it I52T/C85A/Q148K) above, with K102Q counted along it
T1 sequence (P93025 387-496 S394T/S409G/C426A/I452T/F470L/M475V/Q489K limits assumed): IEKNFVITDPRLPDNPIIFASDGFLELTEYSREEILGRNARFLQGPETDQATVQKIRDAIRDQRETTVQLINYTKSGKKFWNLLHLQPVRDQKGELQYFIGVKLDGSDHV
T3 sequence (B8GAY9 entry or part of it C85A/Q148K): as the sequence (B8GAY9 entry or part of it I52T/C85A/Q148K) above, with T6I counted along it

X-ray crystallography (iLOV): hydrogen bond network to FMN and N468
X-ray crystallography (CagFbFP [1]): X-ray structure of CagFbFP-I52T
Compound: Cc1cc2nc3c(=O)[nH]c(=O)nc-3n(C[C@H](O)[C@H](O)[C@H](O)COP(=O)(O)O)c2cc1C [FMN]
X-ray crystallography (CagFbFP [2]): side chain of the introduced lysine is facing away from FMN
X-ray crystallography (CagFbFP [3]): structure of CagFbFP–I52T–Q148K with hydrogen bonds between K148, T52, and the FMN
